Measurements reported in PubChem BioAssay (NCI).
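Cultured in 96-well plates, cells were exposed to test compound for 48 hours across five concentrations. At the GI50, growth is halved. The concentration for full growth arrest is given as TGI.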

Experiments:
Assay in all cases: NCI-60 cell line screen, 48 h
[1] = system: 786-0 renal
[2] = system: CCRF-CEM leukemia
[3] = system: HCT-116 colon
[4] = system: HL-60(TB) leukemia
[5] = system: K-562 leukemia
[6] = system: NCI-H226 lung
[7] = system: SK-MEL-28 melanoma
[8] = system: SK-OV-3 ovarian
[9] = system: UACC-257 melanoma
[10] = system: CAKI-1 renal

SMILES	GI50 [1]	TGI [1]	GI50 [2] [µM]	TGI [2] [µM]	GI50 [3]	TGI [3]	GI50 [4]	TGI [4]	GI50 [5]	TGI [5]	GI50 [6]	TGI [6]	GI50 [7]	TGI [7]	GI50 [8]	TGI [8]	GI50 [9]	TGI [9]	TGI [10]	GI50 [10]
COc1ccc(CNC(=O)c2c(C)n([O-])c3cc(F)c(F)cc3[n+]2=O)cc1	16.9 µM	30.6 µM	3.2	12.4	14.1 µM	27.1 µM	2.64 µM	12.2 µM	1.93 µM	4.05 µM	16.5 µM	41 µM	11.5 µM	23.6 µM	14.8 µM	27.9 µM	10.4 µM	23.6 µM		
CC(C)CC1NC(=O)C(C(C)C)NC(=O)CC(C)COC(=O)C(CC(C)C)N(C)C(=O)C(C(C)C)NC(=O)C(C(C)C)OC1=O (stereo unspecified)		> 50 µM		> 50		> 50 µM				> 50 µM		> 50 µM		> 50 µM		> 50 µM		> 50 µM	> 50 µM	
N#CC1C(=O)NC(=O)C(C#N)C1c1ccc(Cl)c(Cl)c1 (stereo unspecified)		41.7 µM		31.9		29.7 µM		> 100 µM		85.8 µM				> 100 µM		> 100 µM		86.7 µM	71.6 µM	
CC1SC(c2cccc(Cl)c2)N(NC(=O)C(O)c2ccccc2)C1=O (stereo unspecified)	> 100 µM	> 100 µM	> 100	> 100	> 100 µM	> 100 µM			69.4 µM	> 100 µM	> 100 µM	> 100 µM	> 100 µM	> 100 µM	> 100 µM	> 100 µM	> 100 µM	> 100 µM	> 100 µM	> 100 µM
N#CC(CC(=O)O)=C(c1ccccc1)c1ccccc1		> 100 µM				> 100 µM				> 100 µM		> 100 µM		> 100 µM		> 100 µM		> 100 µM	> 100 µM	
C(=NCCN=Cc1cccc2ccccc12)c1cccc2ccccc12		> 100 µM				> 100 µM				> 100 µM		> 100 µM		> 100 µM		> 100 µM		> 100 µM	> 100 µM	
O=C1CC2OCC=C3CN4CCC56c7ccccc7N1C5C2C3CC46 (stereo unspecified) (tested in a mixture with another compound)	> 50 µg/mL	> 50 µg/mL			> 50 µg/mL	> 50 µg/mL	0.103 µg/mL	0.216 µg/mL	3.44 µg/mL	> 50 µg/mL	> 50 µg/mL	> 50 µg/mL	> 50 µg/mL	> 50 µg/mL	> 50 µg/mL	> 50 µg/mL	> 50 µg/mL	> 50 µg/mL	> 50 µg/mL	> 50 µg/mL
CCCCCCCCCCCCCCCC(N)c1ccccc1 (stereo unspecified)	1.68 µM	3.27 µM	1.98	4.33			1.37 µM	3.02 µM	1.89 µM	4.2 µM	1.91 µM	3.69 µM	1.8 µM	3.48 µM	1.58 µM	2.92 µM	1.78 µM	3.4 µM	2.96 µM	1.53 µM
OCC(O)C(OC1OC(CO)C(O)C(O)C1O)c1nn(-c2ccc(Cl)cc2)c2nc3cc(Cl)ccc3nc12 (stereo unspecified)		> 100 µM		> 100		> 100 µM				> 100 µM				> 100 µM		> 100 µM		> 100 µM		
O=C(Nc1ccc(N2CCNCC2)cn1)c1[nH]ncc1Nc1ncnc2sc3c(c12)CCC3	1.41 µM	2.98 µM			0.542 µM	2.18 µM	6.28 µM	29.8 µM	0.207 µM	0.498 µM	20 µM	67.2 µM			16.3 µM	34.8 µM	16.6 µM	41.2 µM	3.26 µM	1.4 µM
NC(C(=O)O)c1ccc(C(=O)O)cc1 (stereo unspecified)		> 100 µM		> 100				> 100 µM		> 100 µM		> 100 µM		> 100 µM		> 100 µM		> 100 µM	> 100 µM	
N#CC1([N+](=O)[O-])C=C1c1ccccc1 (stereo unspecified)		> 100 µM		72.2		> 100 µM		46.3 µM		71.5 µM		> 100 µM				> 100 µM		> 100 µM	> 100 µM	
CC(=O)Nc1ccc(OCC(O)CO)cc1 (stereo unspecified)		70.2 µM		> 100		> 100 µM				> 100 µM		> 100 µM		> 100 µM		> 100 µM		> 100 µM	> 100 µM	
COn1cc(C(=O)N=C(SC)SC)c2ccccc21	20.4 µM	46.9 µM	22.3	91					2.29 µM	17.5 µM	14.1 µM	51.2 µM	80 µM	> 100 µM	50.6 µM	> 100 µM	18.2 µM	59.2 µM	63.8 µM	22.7 µM
Cc1ccc(SSCCCCS(=O)O)cc1		> 100 µM		62.5		> 100 µM		20.4 µM		> 100 µM				44.1 µM		71 µM		53.3 µM	40.9 µM	
CCN(CC)c1ccc(N=C2C=CC(=C(C#N)C#N)c3ccccc32)c(C)c1		6.24 µM		6.1		5.8 µM		3.61 µM		5.47 µM				4.22 µM		24 µM		5.78 µM	5.4 µM	
COC(=O)C1=C(O)C(C(=O)OC)[C@@]2(O)[C@@H](C(=O)OC)C(c3ccccc3Cl)C[C@@H]1[C@@H]2C(=O)OC (stereo partly specified)	5.22 µM	19.5 µM	1.64	5.12	1.97 µM	4.12 µM			3.76 µM	> 100 µM	3.77 µM	15.1 µM	7.16 µM	30.4 µM	23.6 µM	63.4 µM	15.9 µM	38.8 µM	11.2 µM	3.47 µM
ClCCCN1CCCCC1CCl (stereo unspecified)		> 100 µM		> 100		> 100 µM		> 100 µM		> 100 µM				> 100 µM		> 100 µM			> 100 µM	
